Test results reported in US6962909B2, “Treatment of neovascularization disorders with squalimine” (Genaera Corporation, priority 1995, dated 2005).

Legend:
[1] = Fasting blood glucose in mice; assay type: in vivo; settings: for Fasting Blood Glucose Mean + SEM: male CD-1 mice, 2 × 10 mg/kg i.v. (total 20 mg/kg), overnight fast, blood 30 min. after 2d dose, 1437 and 1256 in H2O, 1436 in D5W
Method: To study the effect of steroid administrator or the NHE responsible for secretion of insulin, several of the aminosterols from shark liver were administered to fasting mice. Male CD-1 mice were assigned to one of four treatment groups. Whole blood glucose was tested using glucometer (Lifescan Glucometer II and One Touch test strips). Statistical analysis was via one-way analysis of variance (ANOVA) followed by subsequent Bonferonni's t-test.

[2] = system: Stage 59-60 Xenopus tadpoles; assay: Xenopus tadpole assay; assay type: in vivo, Xenopus laevis; settings: 10 μg/ml in water; for Pharmacological response observed in tadpole: about 1 hour
Procedure, shortened: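 Stage 59-60 Xenopus laevis tadpoles placed in compound dissolved in distilled water at 10 μg/ml, allowing oral uptake and systemic exposure. After 1 hour, capillary blood-flow occlusion in the tail was scored by inverted microscopy (~100×) plus gross observation.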

[3] = system: PHA-stimulated human lymphocytes; assay: Inhibition of mitogen-stimulated growth of human T-cells; assay type: cell-based; settings: 72 hours
Method: Human heparinized blood, freshly collected, was introduced into tissue culture flasks containing 10 μg/ml phytohaemagglutinin (PHA) in RPMI medium with 10% FCS. Various purified steroids were introduced subsequently at concentrations of 1, 5, and 10 μg/ml. Cultures were incubated for 72 hours, after which time colcemid was added to 1 μg/ml. Cultures were maintained for an additional 2 hours, and cells collected. Mitotic figures were estimated using standard cytochemical techniques, following Giemsa staining.

[4] = system: vitelline capillaries of 3- to 5-day chick embryo; assay: Chick embryo vitelline capillary regression assay; assay type: in vivo; parameters: key to Vascular reactivity (capillary regression): + = Vascular reactivity; 0 = No vascular reactivity; +/− = Equivocal reactivity; settings: for Vascular reactivity (capillary regression): 60 minutes
Procedure, shortened: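 Compounds were applied onto the 3- to 5-day embryo in 0.1 ml 15% Ficol 400 in PBS. Vascular regression was assessed visually after 60 min, scoring capillary constriction and pinching-off into enclosed blood-island-like sacs.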

[5] = system: human microvascular cells; assay: Endothelial cord formation assay; assay type: cell-based
Procedure, shortened: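 Human microvascular endothelial cells plated on collagen matrix with VEGF and basic fibroblast growth factor; compound effect assessed on resulting cord-like tubular structures.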

B16 melanoma = assay: Growth of B16 melanoma in C57B mice; assay type: in vivo
Method: The growth of B16 melanoma in C57B mice is dependent upon neovascularization.
Using the growth of B16 melanoma cells in C57B mice, a recognized model for the evaluation of inhibitors of angiogenesis on the growth of cancers, the effects of subcutaneous, intraperitoneal and oral administration of squalamine were evaluated.
Animals were implanted with B16 melanoma followed by treatment with compound 1436 or 1256 administered in a combined schedule or separately. […] Thus, a combination of these two compounds achieves a therapeutic benefit in tumors dependent on neovascularization that may prevent metastatic spread.

VX2 carcinoma = assay: Tumor-induced corneal neovascularization in rabbits; assay type: in vivo, rabbit; settings: pellet of ELVAX 40 P
Description: The implantation of VX2 carcinoma into the rabbit cornea results in the induction of new blood vessels within several days (Tamargo et al., Cancer Research 51, 1991, 672-675). It is believed that this carcinoma secretes growth factors that stimulate new blood-vessel growth. Thus, this model is indicative in vivo evidence of therapeutic utility in the treatment of pathological disorders of vascularization, including the metastatic spread of tumors, diabetic retinopathy, macular degeneration, and rheumatoid arthritis.
This experiment followed the published protocol—tumor was implanted adjacent to a polymer containing a concentration of the agent to be evaluated. The polymer releases the agent slowly in the immediate neighborhood of the tumor, providing sustained high local concentrations of the agent. In this experiment, squalamine introduced into a pellet of ELVAX 40 P (DuPont, Wilmington, Del.) inhibited new blood vessel formation by about 60% at days 7 and 14, and by about 25% at day 21.

[6] = system: L1210 lymphoblastic leukemia cells; assay: Mouse model of L1210 leukemia
Method: C57B mice were inoculated with L1210 lymphoblastic leukemia cells at an inoculum that causes leukemia in 100% of animals. Mice received compound 1436 at 1, 5, 10 mg/kg every 3 days intraperitoneally.
Of particular interest is the hematological profile determined during the course of treatment. Animals were treated with cisplatin and compound 1436.

[7] = mice with 5 × 10^5 L1210 cells ip, cisplatin 8 mg/kg ip, compound 1436 10 mg/kg ip q4d

SMILES	Fasting Blood Glucose Mean + SEM [1] [mg/dL]	Pharmacological category in tadpole assay (similarity to a reference steroid) [2]	Time to death of tadpole [2]	Pharmacological response observed in tadpole [2]	Inhibition of PHA-stimulated human lymphocytes ([3]; 1 μg/ml) [% control]	Inhibition of PHA-stimulated human lymphocytes ([3]; 5 μg/ml) [% control]	Inhibition of PHA-stimulated human lymphocytes ([3]; 10 μg/ml) [% control]	Vascular reactivity (capillary regression) ([4]; 0.001 μg applied)	Vascular reactivity (capillary regression) ([4]; 0.01 μg applied)	Vascular reactivity (capillary regression) ([4]; 0.1 μg applied)	Vascular reactivity (capillary regression) ([4]; 1 μg applied)	Vascular reactivity (capillary regression) ([4]; 10 μg applied)	other results
CC(CC[C@@H](OS(=O)(=O)O)C(C)C)[C@H]1CCC2C3C(CC[C@@]21C)[C@@]1(C)CC[C@H](NCCCNCCCCN)C[C@@H]1C[C@H]3O (stereo partly shown) [squalamine]	65 ± 7.3	common vascular occlusive effect	≤ 2 h	blood flow through the capillaries of the tail shut down	3	8	10	0	+	+	+	+	Pharmacological response observed in tadpole ([2]; listed as Compound 1256): Vascular occlusion in fine capillaries of tail; Concentration that inhibits cord formation [5]: about 0.1 μg/ml; Effect on endothelial cord formation ([5]; 0.01 μg/ml): −; Effect on endothelial cord formation ([5]; 0.1 μg/ml): +; Effect on endothelial cord formation ([5]; 1.0 μg/ml): +; Effect on endothelial cord formation ([5]; 10.0 μg/ml): +; Body weight and hematologic parameters (B16 melanoma; during squalamine treatment): no significant depression; Impact on tumor volume (B16 melanoma; squalamine 5 mg/kg/day alone): no significant impact on tumor volume; Suppression of tumor volume (B16 melanoma; squalamine intraperitoneally): dose-dependent suppression of tumor volume; Suppression of tumor volume (B16 melanoma; squalamine orally): dose-dependent suppression of tumor volume; Suppression of tumor volume (B16 melanoma; squalamine subcutaneously): dose-dependent suppression of tumor volume; Inhibition of new blood vessel formation (VX2 carcinoma; day 21): about 25%; Inhibition of new blood vessel formation (VX2 carcinoma; days 7 and 14): about 60%
CC(CC[C@@H](OS(=O)(=O)O)C(C)C)[C@H]1CCC2C3C(CC[C@@]21C)[C@@]1(C)CC[C@H](NCCCNCCCCNCCCN)C[C@@H]1C[C@H]3O (stereo partly shown) [Compound 1436]	105 ± 8.0	common vascular occlusive effect	about 2 hours	Gradual reduction in overall activity. Heart beat remained strong, suggesting nervous system depression. Melanocytes over head and tail began to swell, first exhibiting visibly distinct nuclei, followed by rupture into fragments	20	50	80	+/−	+	+	+	+	Effect on blood glucose ([1]; intravenous, 1436 in D5W (5% glucose), 1437 in water): caused hyperglycemia in mice; Pharmacological response observed in tadpole ([2]; listed as compound 1436): dramatic disruption of melanocytes over its head, trunk, and tail, along with depression of its nervous system; Effect on chick embryo capillary bed ([4]; in vivo): causes vitelline capillary regression with about the same potency as squalamine; Survival of leukemic mice ([6]; highest dose (10 mg/kg every 3 days intraperitoneally)): significant prolongation of life; RBC, Early Time [6, 7]: 4.8 10^6/mm^3; RBC, Late Time [6, 7]: 8.8 10^6/mm^3; WBC, Early Time [6, 7]: 3.3 10^3/mm^3; WBC, Late Time [6, 7]: 3.7 10^3/mm^3; Impact on tumor volume (B16 melanoma; compound 1436 10 mg/kg/every 3 days alone): no significant impact on tumor volume
